From article PMC6921030, “Biochemical Characterization of a Novel α/β-Hydrolase/FSH from the White Shrimp Litopenaeus vannamei” (Biomolecules, 2019)

Target: T1, LvFSH (LvFHS) (Penaeus vannamei, UniProt A0A3R7MXL5)
T1 construct: gene C7M84_009540; synthetic codon-optimised gene of LvFSH coding region, N-terminal 10-His tag (cutting not mentioned), pJexpress414, E. coli BL21DE3-SI; about 27 kDa on SDS-PAGE, about 58 kDa by gel filtration (probable dimer); catalytic triad Ser111/Asp169/His196 proposed; C-terminal motif KMRELC 214-219
T1 sequence (A0A3R7MXL5 entry or part of it): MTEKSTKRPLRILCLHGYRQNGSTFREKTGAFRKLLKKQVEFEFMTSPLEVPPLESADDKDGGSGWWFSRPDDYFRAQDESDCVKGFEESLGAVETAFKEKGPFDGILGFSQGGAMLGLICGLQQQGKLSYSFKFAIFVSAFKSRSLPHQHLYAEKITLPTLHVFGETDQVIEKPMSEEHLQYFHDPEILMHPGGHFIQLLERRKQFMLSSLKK
Test: spectrophotometric p-nitrophenol release at […] nm, non-linear Michaelis-Menten fit
Format: biochemical
Details: 50 mM Tris-HCl pH 8.0, 37 °C, 0.2% (v/v) Triton X-100, 50 mM NaCl; substrate 0.05-2 mM in ethanol

`CC(=O)Oc1ccc([N+](=O)[O-])cc1` [p-nitrophenyl acetate] was tested, and the Km was 1000 ± 40 µM.
